Source: patent US7531555B2, “Compositions and methods for selective inhibition of nicotine acetylcholine receptors” (University of Florida Research Foundation, Inc., priority 2003, dated 2009)
Read-outs that look alike come from different tables or passages of the source.

How the values were obtained:
Rat α3β4 = target: T1, Rat α3β4 (Rattus norvegicus, UniProt P04757+P12392); experiment: Voltage clamp of Xenopus oocytes expressing α3β4 nAChR; type: cell-based
T1 construct: expressed in transfected cells; host or cells: Xenopus laevis oocytes injected with subunit cRNAs; clones from Dr. Jim Boulter (UCLA)
Experimental: Mature (>9 cm) female Xenopus laevis African frogs (NASCO, Ft. Atkinson, Wis.) were used as a source of oocytes. Prior to surgery, frogs were anesthetized by placing the animal in a 1.5 g/l solution of MS222 (3-aminobenzoic acid ethyl ester) for 30 minutes. Oocytes were removed from an incision made in the abdomen.
In order to remove the follicular cell layer, harvested oocytes were treated with 1.25 mg/ml collagenase from Worthington Biochemical Corporation (Freehold, N.J.) for 2 hours at room temperature in calcium-free Barth's solution (88 mM NaCl, 10 mM HEPES pH 7.6, 0.33 mM MgSO4, 0.1 mg/ml gentamicin sulfate). Subsequently, stage 5 oocytes were isolated and injected with 50 nl (5-20 ng) each of the appropriate subunit cRNAs. Recordings were made 2 to 15 days after injection.
Rat neuronal nAChR clones and mouse muscle nAChR cDNA clones were used. The wild-type clones were obtained from Dr. Jim Boulter (UCLA). The rat α6/3 (Dowell et al. J Neurosci, 2003, 23:8445-8452) clone was obtained from Michael McIntosh (University of Utah) and expressed in Xenopus oocytes in combinations with rat β2 and β3. […] The TM2 domain is understood to line the pore of the channel, with alpha helix structure. The 7′ position may actually be directed away from the actual pore lining, but this residue is highly conserved in all of the nAChR. It is valine in all of them except α9 (isoleucine) and β1, where it is alanine. The TM2 mutation in the α6/3 chimera was corrected by using QuickChange (Stratagene) according to their protocols. The corrected α6/3 chimera sequence was confirmed by restriction diagnostics and by automated fluorescent sequencing (University of Florida core facility). The corrected clone was expressed as above in Xenopus oocytes with β2 and β3 and compared to the wild-type α3 co-expressed with β2 and β3.
After linearization and purification of cloned cDNAs, RNA transcripts were prepared in vitro using the appropriate mMessage mMachine kit from Ambion Inc. (Austin, Tex.).
Electrophysiology. The majority of experiments were conducted using OpusXpress 6000A (Axon Instruments, Union City Calif.). OpusXpress is an integrated system that provides automated impalement and voltage clamp of up to eight oocytes in parallel. Cells were automatically perfused with bath solution, and agonist solutions were delivered from a 96-well plate. Both the voltage and current electrodes were filled with 3 M KCl. The agonist solutions were applied via disposable tips, which eliminated any possibility of cross-contamination. Drug applications alternated between ACh controls and experimental applications. Flow rates were set at 2 ml/min for experiments with α7 receptors and 4 ml/min for other subtypes. Cells were voltage-clamped at a holding potential of −60 mV. Data were collected at 50 Hz and filtered at 20 Hz. Agonist applications were 12 seconds in duration followed by 181-second washout periods for α7 receptors and 8 seconds with 241-second wash periods for other subtypes. For some experiments, particularly under conditions where residual inhibition precluded making repeated measurements from single cells (see below), manual oocyte recordings were made as previously described (Papke and Papke Br J of Pharmacol, 2002, 137:49-61). In brief, Warner Instruments (Hamden, Conn.) OC-725C oocyte amplifiers were used, and data were acquired with a minidigi or digidata 1200A with pClamp9 software (Axon Instruments). Sampling rates were between 10 and 20 Hz and the data were filtered at 6 Hz. Cells were voltage clamped at a holding potential of −50 mV.
Experimental protocols and data analysis. Each oocyte received two initial control applications of ACh, an experimental drug application (or co-application of ACh and TMPH), and then follow-up control application(s) of ACh. The control ACh concentrations for α1β1γδ, α3β4, α4β2, α3β2, α3β2α5, α3β2β3, α6/3β2β3 α6β4β3 and α7, receptors were 30 μM, 100 μM, 10 μM, 30 μM, 1 μM 100 μM 100 μM 100 μM and 300 μM, respectively. […]

mice = experiment: Tail-flick test, blockade of nicotine-induced antinociception; type: in vivo
Experimental: Animals. Male ICR mice (20-25 g) obtained from Harlan Laboratories (Indianapolis, Ind.) were used throughout the study. Animals were housed in groups of six and had free access to food and water. Adult, male Long-Evans rats (350-460 g), obtained from Harlan (Dublin, Va.), were individually housed in a temperature-controlled (20-22° C.) environment with a 12-hour light-dark cycle (lights on at 7 a.m.). Rats were maintained within the indicated weight range by restricted post-session feeding and had ad libitum water in their home cages. Rats were drug-naive at the beginning of the study. Animals were housed in an AALAC approved facility and the study was approved by the Institutional Animal Care and Use Committee of Virginia Commonwealth University.
1. Tail-flick test. Antinociception was assessed by the tail-flick method of D'Amour and Smith (D'Amour and Smith J. P. E. T., 1941, 72:74-79) as modified by Dewey et al. (Dewey et al. J Pharmacol Exp Ther, 1970, 175:435-442). Briefly, mice were lightly restrained while a radiant heat source was shone onto the upper portion of the tail. Latency to remove the tail from the heat source was recorded for each animal. A control response (2-4 seconds) was determined for each mouse before treatment, and a test latency was determined after drug administration. In order to minimize tissue damage, a maximum latency of 10 seconds was imposed. Antinociceptive response was calculated as percent maximum possible effect (% MPE), where % MPE=[(test-control)/(10-control)]×100.
2. Hot-plate Test. […] Two control latencies at least 10 minutes apart were determined for each mouse. […] Antinociceptive response was calculated as percent maximum possible effect (% MPE), where % MPE=[(test-control)/(40-control)×100]. The reaction time was scored when the animal jumped or licked its paws. […]
The doses of nicotine used in the different tests represent approximately an ED84 (Effective dose 84%) which were determined from previous works (Damaj et al. Psychopharmacology (Berl), 1995, 117:67-73). […]

T1 sequence (P04757 26-499): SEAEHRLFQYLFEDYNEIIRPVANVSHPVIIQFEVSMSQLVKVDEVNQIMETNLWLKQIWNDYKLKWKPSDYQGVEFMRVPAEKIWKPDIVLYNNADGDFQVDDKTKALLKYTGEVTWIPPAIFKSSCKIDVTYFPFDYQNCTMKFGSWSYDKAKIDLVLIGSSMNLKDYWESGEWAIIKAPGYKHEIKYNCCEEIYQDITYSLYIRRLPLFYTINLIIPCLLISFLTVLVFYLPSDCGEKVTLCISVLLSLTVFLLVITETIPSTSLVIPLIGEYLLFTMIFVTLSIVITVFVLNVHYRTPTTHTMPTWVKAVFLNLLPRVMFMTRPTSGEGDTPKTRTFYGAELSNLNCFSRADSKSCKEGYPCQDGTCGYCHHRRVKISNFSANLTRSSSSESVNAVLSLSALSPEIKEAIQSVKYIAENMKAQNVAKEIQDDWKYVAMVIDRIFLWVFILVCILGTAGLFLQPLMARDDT
T1 sequence (P12392 21-495): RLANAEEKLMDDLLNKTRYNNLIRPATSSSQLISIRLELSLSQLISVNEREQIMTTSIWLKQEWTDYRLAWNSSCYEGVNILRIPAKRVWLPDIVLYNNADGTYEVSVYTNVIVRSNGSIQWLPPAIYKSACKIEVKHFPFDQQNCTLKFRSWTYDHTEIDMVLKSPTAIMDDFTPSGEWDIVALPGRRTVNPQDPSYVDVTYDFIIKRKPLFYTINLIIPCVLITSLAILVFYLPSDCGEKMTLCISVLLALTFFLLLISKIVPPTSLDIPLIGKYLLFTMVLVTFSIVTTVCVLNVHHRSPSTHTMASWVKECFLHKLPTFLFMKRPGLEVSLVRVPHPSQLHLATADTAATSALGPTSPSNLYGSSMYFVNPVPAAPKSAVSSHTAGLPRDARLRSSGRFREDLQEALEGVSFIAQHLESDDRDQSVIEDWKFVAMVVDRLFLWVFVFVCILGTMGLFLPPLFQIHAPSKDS

CCCCCCC(=O)OC1CC(C)(C)NC(C)(C)C1 [TMPH, 2,2,6,6-tetramethylpiperidin-4-yl heptanoate]
reversibility of inhibition (Rat α3β4; after a 5-minute wash): persisted after the wash | IC50 (Rat α3β4; decrease in net charge, 100 μM ACh co-applied with TMPH, read-out: IC50 (area)): 75 ± 23 nM | IC50 (Rat α3β4; decrease in peak current amplitude, 100 μM ACh co-applied with TMPH, read-out: IC50 (peak)): 200 ± 50 nM | IC50 (Rat α3β4; inhibition still present after 5-minute wash, read-out: IC50 (recovery)): 85 ± 32 nM | IC50 net charge/IC50 peak (Rat α3β4; ratio): 0.36 | IC50 recovery/IC50 net charge (Rat α3β4; ratio): 1.1 | duration of TMPH effect, tail-flick (mice; TMPH 5 mg/kg s.c., still significantly different from control): at least 4 hours | time at which nicotine's effect started to recover, tail-flick (mice; pretreatment with TMPH 5 mg/kg): ≤ 60 min | antinociception by TMPH itself, tail-flick (mice; s.c. injection, at the indicated doses and times): did not cause antinociception
